Test results published in ChEMBL document CHEMBL4270538, “Targeting prohibitin with small molecules to promote melanogenesis and apoptosis in melanoma cells” (Eur J Med Chem, 2018).
The source made the active and inactive calls. The rule behind the calls is not given here.

Assays:
[1] = biological target: Prohibitin-2 (Homo sapiens) (UniProt Q99623); assay: Induction of PHB2-mediated melanogenesis in human HBL cells assessed as pigmentation at 1 uM after 10 days relative to control; assay type: cell-based
Chain of Prohibitin-2 (Homo sapiens) (Q99623 whole entry): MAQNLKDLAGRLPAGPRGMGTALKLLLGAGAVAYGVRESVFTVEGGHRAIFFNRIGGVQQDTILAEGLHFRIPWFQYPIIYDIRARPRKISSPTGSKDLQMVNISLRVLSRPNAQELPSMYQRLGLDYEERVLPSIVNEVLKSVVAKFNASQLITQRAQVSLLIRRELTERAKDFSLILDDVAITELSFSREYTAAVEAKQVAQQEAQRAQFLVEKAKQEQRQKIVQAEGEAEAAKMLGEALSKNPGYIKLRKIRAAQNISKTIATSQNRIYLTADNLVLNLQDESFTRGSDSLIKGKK

[2] = biological target: Prohibitin-2 (Homo sapiens) (UniProt Q99623); assay: Induction of PHB2-mediated melanogenesis in human HBL cells assessed as pigmentation at 10 uM after 10 days relative to control; assay type: cell-based
[3] = biological target: T1, Prohibitin 1 (Homo sapiens) (UniProt P35232); assay: Downregulation of PHB1 in human HBL cells at 1 to 10 uM after 24 hrs by Western blot analysis; assay type: cell-based
T1 sequence (whole entry): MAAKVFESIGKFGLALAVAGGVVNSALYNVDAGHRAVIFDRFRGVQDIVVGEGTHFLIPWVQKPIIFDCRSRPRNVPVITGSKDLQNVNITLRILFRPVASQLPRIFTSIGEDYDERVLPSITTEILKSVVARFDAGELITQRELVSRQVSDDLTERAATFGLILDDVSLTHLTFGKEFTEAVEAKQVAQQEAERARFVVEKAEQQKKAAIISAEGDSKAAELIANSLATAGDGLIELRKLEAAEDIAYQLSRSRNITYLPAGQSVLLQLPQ

[4] = biological target: Prohibitin-2 (Homo sapiens) (UniProt Q99623); assay: Binding affinity to PHB2 in human HBL cells assessed as LC3-2 accumulation at 1 to 10 uM after 24 hrs by Western blot analysis; assay type: cell-based
[5] = biological target: Prohibitin-2 (Homo sapiens) (UniProt Q99623); assay: Binding affinity to PHB2 in human HBL cells assessed as upregulation of MITF protein expression at 1 to 10 uM after 24 hrs by Western blot analysis; assay type: cell-based
[6] = biological target: Prohibitin-2 (Homo sapiens) (UniProt Q99623); assay: Binding affinity to PHB2 in human HBL cells assessed as upregulation of tyrosinase protein expression at 1 to 10 uM after 24 hrs by Western blot analysis; assay type: cell-based
[7] = test system: PC-3; assay: Inhibition of cell proliferation in human PC3 cells at 1 uM after 72 hrs by MTS assay relative to control; assay type: functional; conditions: PC-3, 72 h
[8] = test system: LNCaP; assay: Inhibition of cell proliferation in human LNCAP cells at 1 uM after 72 hrs by MTS assay relative to control; assay type: functional
[9] = Inhibition of cell proliferation in human EPC cells at 1 uM after 72 hrs by MTS assay relative to control; assay type: functional
[10] = test system: HT-29; assay: Inhibition of cell proliferation in human HT-29 cells at 1 uM after 72 hrs by MTS assay relative to control; assay type: functional; conditions: HT-29, 72 h
[11] = test system: HCT-116; assay: Inhibition of cell proliferation in human HCT116 cells at 1 uM after 72 hrs by MTS assay relative to control; assay type: functional; conditions: HCT-116, 72 h
[12] = test system: MCF7; assay: Inhibition of cell proliferation in human MCF7 cells at 1 uM after 72 hrs by MTS assay relative to control; assay type: functional; conditions: MCF7, 72 h
[13] = test system: HL-60; assay: Inhibition of cell proliferation in human HL60 cells at 1 uM after 72 hrs by MTS assay relative to control; assay type: functional; conditions: HL-60, 72 h
[14] = test system: KB; assay: Inhibition of cell proliferation in human KB cells at 1 uM after 72 hrs by MTS assay relative to control; assay type: functional
[15] = test system: HBL; assay: Inhibition of cell proliferation in human HBL cells at 1 uM after 72 hrs by MTS assay relative to control; assay type: functional
[16] = test system: PC-3; assay: Inhibition of cell proliferation in human PC3 cells at 10 uM after 72 hrs by MTS assay relative to control; assay type: functional; conditions: PC-3, 72 h
[17] = test system: LNCaP; assay: Inhibition of cell proliferation in human LNCAP cells at 10 uM after 72 hrs by MTS assay relative to control; assay type: functional
[18] = Inhibition of cell proliferation in human EPC cells at 10 uM after 72 hrs by MTS assay relative to control; assay type: functional
[19] = test system: HT-29; assay: Inhibition of cell proliferation in human HT-29 cells at 10 uM after 72 hrs by MTS assay relative to control; assay type: functional; conditions: HT-29, 72 h
[20] = test system: HCT-116; assay: Inhibition of cell proliferation in human HCT116 cells at 10 uM after 72 hrs by MTS assay relative to control; assay type: functional; conditions: HCT-116, 72 h
[21] = test system: MCF7; assay: Inhibition of cell proliferation in human MCF7 cells at 10 uM after 72 hrs by MTS assay relative to control; assay type: functional; conditions: MCF7, 72 h
[22] = test system: HL-60; assay: Inhibition of cell proliferation in human HL60 cells at 10 uM after 72 hrs by MTS assay relative to control; assay type: functional; conditions: HL-60, 72 h
[23] = test system: KB; assay: Inhibition of cell proliferation in human KB cells at 10 uM after 72 hrs by MTS assay relative to control; assay type: functional
[24] = test system: HBL; assay: Inhibition of cell proliferation in human HBL cells at 10 uM after 72 hrs by MTS assay relative to control; assay type: functional
[25] = test system: HL-60; assay: Inhibition of cell proliferation in human HL60 cells after 72 hrs by MTS assay; assay type: functional, cell-based; conditions: HL-60, 72 h
[26] = test system: KB; assay: Inhibition of cell proliferation in human KB cells after 72 hrs by MTS assay; assay type: functional, cell-based
[27] = biological target: Prohibitin-2 (Homo sapiens) (UniProt Q99623); assay: Binding affinity to PHB2 in human HBL cells assessed as upregulation of ERK phosphorylation at 1 to 10 uM after 24 hrs by Western blot analysis; assay type: cell-based
[28] = biological target: RAC-alpha serine/threonine-protein kinase (Homo sapiens) (UniProt P31749); assay: Inhibition of Akt phosphorylation in human HBL cells at 1 to 10 uM after 24 hrs by Western blot analysis; assay type: cell-based
Chain of RAC-alpha serine/threonine-protein kinase (Homo sapiens) (P31749 whole entry): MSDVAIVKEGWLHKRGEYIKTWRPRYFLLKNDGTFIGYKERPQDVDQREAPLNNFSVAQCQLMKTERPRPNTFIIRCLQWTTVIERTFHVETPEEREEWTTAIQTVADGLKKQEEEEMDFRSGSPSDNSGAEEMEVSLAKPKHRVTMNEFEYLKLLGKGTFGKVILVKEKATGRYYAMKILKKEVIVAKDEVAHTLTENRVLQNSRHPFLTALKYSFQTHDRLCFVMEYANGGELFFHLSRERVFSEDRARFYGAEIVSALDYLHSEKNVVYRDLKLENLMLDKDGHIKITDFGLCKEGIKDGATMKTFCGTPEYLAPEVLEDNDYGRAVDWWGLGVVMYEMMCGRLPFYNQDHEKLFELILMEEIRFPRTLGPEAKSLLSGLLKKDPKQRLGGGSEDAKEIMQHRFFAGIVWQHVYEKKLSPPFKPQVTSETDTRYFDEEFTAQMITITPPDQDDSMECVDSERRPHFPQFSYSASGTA

fold change (FC) [1]: 1.05
fold change (FC) [2]: 1.25
Activity [3]: Active
Activity [4]: Active
Activity [5]: Active
Activity [6]: Active
IC50 [25]: 15 µM
IC50 [26]: 33 µM
Activity [27]: Active
inhibition [28]: Active
Structure (SMILES): NCCOCCOCCNc1nc(NCc2cccc(F)c2)nc(Oc2c(F)c(F)c(F)c(F)c2F)n1
inhibition at 1 µM [7]: 15%
inhibition at 1 µM [8]: 11%
inhibition at 1 µM [9]: 27%
inhibition at 1 µM [10]: 12%
inhibition at 1 µM [11]: 10%
inhibition at 1 µM [12]: 11%
inhibition at 1 µM [13]: 31%
inhibition at 1 µM [14]: 29%
inhibition at 1 µM [15]: 9%
inhibition at 10 µM [16]: 52%
inhibition at 10 µM [17]: 32%
inhibition at 10 µM [18]: 58%
inhibition at 10 µM [19]: 20%
inhibition at 10 µM [20]: 36%
inhibition at 10 µM [21]: 27%
inhibition at 10 µM [22]: 59%
inhibition at 10 µM [23]: 89%
inhibition at 10 µM [24]: 18%
